Compound `O=C(CCCCCCCCCCN1CCN(c2ccccc2)CC1)Nc1ccc(O)cc1` has a melting point of 160 to 162 °C.
Work on `O=C(NC(=O)c1c(F)cccc1F)Nc1ccc(Cl)c(C(F)(F)F)c1` yielded a melting point of 220 °C.
`CN(c1ccc([N+](=O)[O-])cc1C(F)(F)F)c1c(Cl)c(Cl)nc(Cl)c1Cl` showed a melting point of 152 to 155 °C.
Compound `COc1cccc(C(CCN2CCN(Cc3cccc(F)c3)CC2)C2(O)CCCCC2)c1` (configuration not stated) has a melting point of 131 to 133 °C.
`Cc1ccc(C(=O)c2cc(-c3cccnc3)c(N3CCOCC3)s2)cc1` showed a melting point of 134 °C.
In the case of `COCCN(CCOC)c1ccccc1NC(N)=S`, the melting point was 118 to 119 °C.
For `CN1C(=O)CC[C@]2(C)c3ccc(-c4ccc([N+](=O)[O-])s4)cc3CC[C@@H]12`, the melting point was 147 to 149 °C.
`O=C1C(=Cc2ccccc2)c2ccccc2N1C1=NCCS1` gave a melting point of 120 to 125 °C.
Work on `Nc1cc(OCc2cccc(Cl)c2)c(C(=O)NC2CN3CCC2CC3)cc1Cl` (configuration not stated) yielded a melting point of 168 to 169 °C.
`NC(=O)c1ccc(N2CCN(CCC3C=Cc4ccccc43)CC2)cc1` (configuration not stated) gave a melting point of 207 °C.
In the case of `Cn1cc(C(=O)c2ccncc2)cc1C(=O)c1ccc(Cl)cc1`, the melting point was 174 to 175 °C.
`CCCCc1ncc(/C=C(\Cc2cccs2)C(=O)O)n1Cc1ccc(C#N)cc1` showed a melting point of 190 to 192 °C.
For `COC(=O)c1cc(NC(C)=O)ccc1OC(C)=O`, the melting point was 133 to 135 °C.
In the case of `O=C(N1CCC(n2ccc3ccccc32)CC1)C(F)(F)F`, the melting point was 130 to 132 °C.
In the case of `CCCCCCCC(=O)CCCCCC(=O)N[C@@H](C)C(=O)N[C@H](CCC(=O)OCc1ccccc1)C(N)=O`, the melting point was 137 to 141 °C.
Compound `COc1ccc(-c2ccccn2)c(S(=O)c2nc3cc(OC)c(OC)cc3[nH]2)c1` (configuration not stated) has a melting point of 208 to 210 °C.
In the case of `c1ccc2c(c1)ccn2Nc1ncnc2c1ncn2-n1ccc2ccccc21`, the melting point was 196 to 198 °C.
`Cc1cc(C(=O)N2Cc3ccc(C(=O)N4CCN(C)CC4)n3Cc3ccccc32)ccc1C1=CCCc2ccccc21` gave a melting point of 108 °C.
`COc1ccc(C=Cc2ccc(CO)cc2)cc1` gave a melting point of 200 to 202 °C.
Compound `CC1(C)CC(=O)C2=C(C1)NC1=C(C(=O)CC(C)(C)C1)C2c1cccc(OCc2ccncc2)c1` has a melting point of 156 to 158 °C.
`COc1c(N(C)C)cc(CC(C#N)=CNc2ccccc2)cc1N(C)C` showed a melting point of 103 to 105 °C.
For `Cc1nc2c(NC(=O)OCCc3ccc([N+](=O)[O-])cc3)nc(=O)n(C3CC(O)C(CO)O3)c2nc1C` (configuration not stated), the melting point was 154 to 155 °C.
Compound `CC(=O)O[C@H]1C[C@@H](n2cnc3c(=O)[nH]cnc32)[C@H](O)[C@@H]1O` (racemic) has a melting point of 240 to 242 °C.
`COc1cccc(Oc2ccc(NC(C)=O)cc2)c1` gave a melting point of 103 to 105 °C.
For `CNS(=O)(=O)OCC(COc1ccccc1OC)OS(N)(=O)=O` (configuration not stated), the melting point was 110 to 113 °C.
For `COCCOc1cccc2cc(-c3nnn[nH]3)c(=O)oc12`, the melting point was 215 °C.
With `CC[C@H]1C(=O)N(S(=O)(=O)c2ccc3ccccc3c2)[C@H]2CCN(C(=O)OCc3ccccc3)[C@H]12` (relative stereo) the melting point was 156 °C.
In the case of `Oc1ccc2c(c1)C13CCCCC1N(C2)N(CC1CC1)CC3` (single isomer, unassigned; (+)), the melting point was 151 to 153 °C.
With `Cc1noc(NS(=O)(=O)c2ccccc2-c2ccc(-c3ncco3)cc2CN2Cc3ccccc3C2=O)c1C` the melting point was 135 to 142 °C.
With `Cc1csc2ccc3[nH]c4c(c3c12)CN(Cc1ccccc1)CC4` the melting point was 93 °C.
Compound `CCCNCCCOc1ccc(-c2ccc(C(=O)O)cc2)cc1-c1ccc2c(c1)C(C)(C)CCC2(C)C` has a melting point of 226 °C.
With `NCCCn1ccc2cc(NC(=O)c3nc4ccc(Cl)cc4n3Cc3ccccc3)ccc21` the melting point was 106 to 108 °C.
For `Cc1c(O)cccc1C(=O)N[C@@H](Cc1ccccc1)[C@H](O)C(=O)N1CSC(C)(C)[C@H]1C(=O)N[C@H]1C=CCCC1`, the melting point was 193 to 195 °C.
For `O=C(CCn1ccnc1)N1c2ccccc2Sc2ccccc21`, the melting point was 150 to 152 °C.
Work on `O=[N+]([O-])c1cnc2ccc(Sc3ccccc3)cn12` yielded a melting point of 108 to 109 °C.
In the case of `CCOC(=O)c1sc(Cl)nc1-c1ccc(F)cc1`, the melting point was 113 to 114 °C.
With `CCCc1c(OCCCOc2ccc(C(=O)C(=O)O)cc2)ccc(C(C)=O)c1O` the melting point was 129 to 130 °C.
Work on `COc1ccc(Nc2ccc(Nc3ccnc4cc(-c5cccc([N+](=O)[O-])c5)sc34)cc2)cc1` yielded a melting point of 175 to 184 °C.
`O=C(O)C1CCc2c(Cc3ccc(Cl)cc3)cccc21` (configuration not stated) showed a melting point of 127 to 129 °C.
Compound `CCC1(CCCCN2CCN(c3ccc(C)c(Cl)c3)CC2)C(=O)Nc2ccccc21` (configuration not stated) has a melting point of 103 to 106 °C.
With `CC1(C)CCC(C)(C)c2cc(CC#Cc3ccc(CO)c(O)c3)ccc21` the melting point was 94 to 95 °C.
For `CON(C)C(=O)c1cc(-n2c(=O)cc(C(F)(F)F)n(C)c2=O)c(F)cc1Cl`, the melting point was 158 °C.
For `CC(C)(C)OC(=O)N1CCCC1C(=O)NCCC(N)=O` (configuration not stated), the melting point was 175 °C.
In the case of `CCOCc1nc2c(N)nc3cc(-c4cccnc4)ccc3c2n1CCNC(=O)NC(C)C`, the melting point was 194 to 196 °C.
With `Cc1ccc2c3c(ccc2n1)OC[C@H](CN1CCCN(c2ccc4cc(C#N)ccc4n2)CC1)O3` the melting point was 80 to 85 °C.
`N#Cc1ccc(Oc2cc3c(cc2Cl)C=C(C(=O)O)C(C(F)(F)F)O3)cc1` (configuration not stated) showed a melting point of 212 to 216 °C.
`N=C(Nc1ccc(OCCNCc2ccccc2)cc1F)c1cccs1` showed a melting point of 105 to 107 °C.
In the case of `CCn1nnc2cc3c(=O)n(C(C)Cn4ncnn4)nnc3cc2c1=O` (configuration not stated), the melting point was 174 to 176 °C.
For `Oc1ccc(-c2cn(-c3ccc(C(F)(F)F)cc3F)nn2)cc1`, the melting point was 215 to 216 °C.
`C=C(C#N)CN1CCC(C(N)=O)CC1` gave a melting point of 127 to 129 °C.
For `CCN(CC)CCNC(=O)c1nc(Cl)c(NCCN(CC)CC)nc1OC`, the melting point was 112 °C.
In the case of `O=[N+]([O-])c1cc(-c2ncnc(C(F)F)c2Cl)c(Cl)cc1Cl`, the melting point was 107 to 109 °C.
`COc1cc(C(=O)Nc2nnn[nH]2)nc(-c2ccc(N(C)C)cc2)c1` gave a melting point of 261 to 263 °C.
For `ICCc1ccc2c(c1)OCO2`, the melting point was 36 to 38 °C.
`CCOC(=O)c1cnc2c(-c3cccc(Cl)c3)cnn2c1Cl` gave a melting point of 140 to 141 °C.
For `O=C(O)CCCCN(C(=O)c1ccc(Cl)cc1)c1ccc2c(c1)CCC2`, the melting point was 132 to 134 °C.
`N#CCc1ccc2c(c1)Cc1cccnc1O2` showed a melting point of 166 to 167 °C.
`O=[N+]([O-])C=C1C2CC3CC(C2)CC1C3` showed a melting point of 78 to 81 °C.
Work on `CCCCS(=O)(=O)NC1Cc2ccc(C(C)=O)cc2C1` (configuration not stated) yielded a melting point of 90 to 92 °C.
Work on `CN1CCN(c2ccc(C#N)nn2)CC1` yielded a melting point of 149 °C.
Work on `Fc1ccccc1-n1c(CN2CCOCC2)nnc1-c1ccc(-c2ccccc2)cc1` yielded a melting point of 129 to 131 °C.
Work on `O=S(=O)(c1ccc(Br)cc1)N1CCC(CN2CCC(c3ccncc3)CC2)CC1` yielded a melting point of 163 to 164 °C.
`CCOC(=O)N1C[C@H](O)C[C@H]1CCOc1ccc(Br)cc1CCc1ccccc1` showed a melting point of 63 to 66 °C.
For `CCOC(=O)c1ccc(C(=O)NNC(=O)c2ccc(C(=O)OCC)cc2)cc1`, the melting point was 191 to 195 °C.
`COC(=O)c1ccc(Cc2cc3cc(C(F)(F)F)ccc3n2S(=O)(=O)c2ccc(C(C)C)cc2)cc1` showed a melting point of 123 °C.
Compound `Nc1cc(C(=O)NC2CC2)n[nH]1` has a melting point of over 246 °C.
With `CC(C)(COc1c(-c2ccccc2)c(=O)oc2ccccc12)CN1CCOCC1` the melting point was 167 °C.
Work on `O=C(O)CC(=O)Nc1c(-c2ccccc2)c(=O)[nH]c2cc(Cl)ccc12` yielded a melting point of 260 °C.
Work on `COc1cc(Nc2nccc(Nc3cccc(OC(F)(F)F)c3)n2)cc(OC)c1OC` yielded a melting point of 154 to 156 °C.
For `CC(C)c1ccc(OCC(=O)N2C(=O)OC[C@H]2Cc2ccccc2)cc1`, the melting point was 104 to 105 °C.
For `FC(F)(F)Oc1ccc(-n2ccc(CBr)n2)cc1`, the melting point was 71 to 73 °C.
`N#CC(Oc1nsnc(Cl)c1=O)c1cccc(Oc2ccccc2)c1` (configuration not stated) showed a melting point of 146 to 148 °C.
In the case of `CCCc1nc2c(N)nc3cc(OCCN4CCCCC4)ccc3c2s1`, the melting point was 141 to 143 °C.
Compound `O=C1c2ccccc2C(=O)N1Oc1ccc([N+](=O)[O-])cc1C(F)(F)F` has a melting point of 190 °C.
For `Nc1nc2ccccc2c2c1nc(CO)n2CC1(O)CCCCC1`, the melting point was 244 to 248 °C.
For `N#CCCN1CCC(c2ccccc2)(c2ccccc2)CC1`, the melting point was 95 to 96 °C.
In the case of `CCCCCC1CCc2c(c(F)c(F)c3oc(C4CCC(CCC)CC4)cc23)O1` (configuration not stated), the melting point was 101 °C.
`Clc1ccc(-c2ccc(C=CC3COC4(CCCCC4)OO3)cc2)cc1` (configuration not stated) gave a melting point of 109 to 111 °C.
In the case of `COc1ccc(Br)c(C(=NNS(=O)(=O)c2ccccc2)N2CCN(C)CC2)c1`, the melting point was 141 to 145 °C.
In the case of `CCc1oc(-c2ccc(C(F)(F)F)cc2)cc1CCC(=O)Nc1cccc(CSCC(=O)O)c1`, the melting point was 139 to 141 °C.
With `CCn1c(C)c(C)cc(C(=O)O)c1=O` the melting point was 164 to 165 °C.
Compound `CCN1c2ncc(COc3ccccc3O)cc2C(=O)N(C)c2ccc(Cl)nc21` has a melting point of 172 to 173 °C.
`CS(=O)(=O)c1cccc(/C=C/C2=CCN(Cc3ccccc3)CC2)c1` gave a melting point of 150 to 152 °C.
`O=C(NN1CCCCC1)NS(=O)(=O)c1ccc(CCN2C(=O)c3ccccc3C2(O)c2ccccc2)cc1` (configuration not stated) gave a melting point of 228 °C.
Compound `CC(=O)OCC(=O)COC(C)=O` has a melting point of 45.5 to 46.6 °C.
Compound `O=C(O)c1cc(=O)c2cc(O)c(=O)ccc2[nH]1` has a melting point of 258 to 260 °C.
`COc1ccc2ccccc2c1-c1c(C)c2c(c(C)c1P(=O)(c1ccccc1)c1ccccc1)COC2` showed a melting point of 105 to 107 °C.
`O=S(=O)(c1ccccc1)c1c[nH]c2ccc(N3CCN(Cc4ccccc4)CC3)nc12` gave a melting point of 238 to 239 °C.
Work on `COc1c(C)cc(-c2c3ccccc3c(C)c3sc4ccccc4c23)cc1C` yielded a melting point of 154 to 156 °C.
With `COc1ccc(C(=O)Nc2ccccc2)cc1NCc1cccc(C)c1` the melting point was 184 to 185 °C.
Work on `O=[N+]([O-])c1ccccc1/C=C/c1ccccc1[N+](=O)[O-]` yielded a melting point of 195 to 196 °C.
With `C=CCN(CC=C)Cc1noc(-c2ncn3c2[C@@H]2CCN2C(=O)c2ccccc2-3)n1` the melting point was 147 to 150 °C.
In the case of `CCCn1nc2c(N)nc3ccccc3c2c1CCCCN1C(C)=NOC12CCCC2`, the melting point was 101 to 105 °C.
Compound `COc1ccc2ccccc2c1CC#N` has a melting point of 95.2 to 95.6 °C.
`CC1(C(=O)O)OC2CCCCC2NC1=O` (configuration not stated) gave a melting point of 142 to 144 °C.
In the case of `CCCCCCCCNC(=O)/C=C\SC(=O)c1cc(Cl)cc(Cl)c1`, the melting point was 99 to 102 °C.
Compound `COc1ccc2cc([C@H](C)C(=O)SCCCCO[N+](=O)[O-])ccc2c1` has a melting point of 30 to 35 °C.

Reference: a melting point compilation (Tetko et al.; mined from patent text by program, amines drawn as free bases though some values may be those of a salt)
